Bounds are passed on as bounds.

The test system of the assay is NCIH727 cells. The assay is described as follows: Cancer cell line proliferation (CellTiter-Glo), NCI-H727. It is filed as cell-based. The following applies: Homo sapiens, 72 h, NCIH727 lung carcinoid, heterozygous G12V. The protocol: Cell lines were cultured essentially according to ATCC recommendations.
SW620 and NCIH727 cells were plated in 384-well tissue culture plates at 1,000 cells/well and incubated at 37° C./5% CO2 for 72 hr in 40 μl of media. […] Each cell line was then treated with test compounds at various concentrations with a final concentration of 0.5% DMSO/well, and then incubated at 37° C./5% CO2 for 72 hr. 40 μl of CellTiter-Glo® Reagent (Promega Corporation, Madison, WI) was added to each well and processed according manufacturer's protocol. Results were analyzed and IC50 values were calculated in GraphPad 8.0 software.
By EC50 is commonly meant the concentration that produces a half-maximal response. Read a low EC50 as an effect from little substance. In turn, `C#Cc1c(F)ccc2cc(O)cc(-c3nc(OC)c4c(N5CC6CCC(C5)N6C(=O)COC)nc(OCC5(CN6CC7CC7C6)CC5)nc4c3F)c12` (centres unmarked) [Example 106] displayed an EC50 of 0.1 to 1 µM.
In turn, `C#Cc1c(F)ccc2cc(O)cc(-c3nc(OC)c4c(N5CC6CCC(C5)N6C(=O)CCN(C)C)nc(OCC5(CN6CC7CC7C6)CC5)nc4c3F)c12` (centres unmarked) [Example 107] yielded an EC50 of more than 1 µM.
The compound `C#Cc1c(F)ccc2cc(O)cc(-c3nc(OC)c4c(N5CC6CCC(C5)N6C(=O)CCOC)nc(OCC5(CN6CC7CC7C6)CC5)nc4c3F)c12` (centres unmarked) [Example 108] registered an EC50 of 0.1 to 1 µM.
Consider `C#Cc1c(F)ccc2cc(O)cc(-c3nc(OC)c4c(N5CC6CCC(C5)N6C(=O)N(C)CC#N)nc(OCC5(CN6CC7CC7C6)CC5)nc4c3F)c12` (centres unmarked) [Example 110], for which the EC50 was more than 1 µM.
With `C#Cc1c(F)ccc2cc(O)cc(-c3nc(OC)c4c(N5CC6CCC(C5)N6C(=O)OC(C)(C)C#N)nc(OCC5(CN6CC7CC7C6)CC5)nc4c3F)c12` (centres unmarked) [Example 111], the EC50 is less than 0.1 µM.
The figure for `C#Cc1c(F)ccc2cc(O)cc(-c3nc(OC)c4c(N5CC6CCC(C5)N6C(=O)C(C#N)C(C)(C)C)nc(OCC5(CN6CC7CC7C6)CC5)nc4c3F)c12` (centres unmarked) [Example 112] is more than 1 µM; for `C#Cc1c(F)ccc2cc(O)cc(-c3nc(OC)c4c(N5CC6CCC(C5)N6C(=O)CCCC#N)nc(OCC5(CN6CC7CC7C6)CC5)nc4c3F)c12` (centres unmarked) [Example 113] it is 0.1 to 1 µM.
With `C#Cc1c(F)ccc2cc(O)cc(-c3nc(OC)c4c(N5CC6CCC(C5)N6C(=O)C5(C)CC5)nc(OCC5(CN6CC7CC7C6)CC5)nc4c3F)c12` (centres unmarked) [Example 114], the EC50 was more than 1 µM.
Turning to `C#Cc1c(F)ccc2cc(O)cc(-c3nc(OC)c4c(N5CC6CCC(C5)N6C(=O)C5(C#N)CC5)nc(OCC5(CN6CC7CC7C6)CC5)nc4c3F)c12` (centres unmarked) [Example 115], the EC50 fell in the range of 0.1 to 1 µM.
For the compound `C#Cc1c(F)ccc2cc(O)cc(-c3nc(OC)c4c(N5CC6CCC(C5)N6C(=O)C5(C(F)(F)F)CC5)nc(OCC5(CN6CC7CC7C6)CC5)nc4c3F)c12` (centres unmarked) [Example 116], the concentration giving a half-maximal response (EC50) is more than 1 µM.
The figure for `C#Cc1c(F)ccc2cc(O)cc(-c3nc(OC)c4c(N5CCN(C(=O)CC#N)[C@@H](CC#N)C5)nc(OCC5(CN6CC7CC7C6)CC5)nc4c3F)c12` (some centres unmarked) [Example 117] is more than 1 µM; for `C#Cc1c(F)ccc2cc(O)cc(-c3nc(OC)c4c(N5CC6CCC(C5)N6C(C)=O)nc(OCC5(CN6CC7CC7C6)CC5)nc4c3F)c12` (centres unmarked) [Example 120] it is 0.1 to 1 µM.
Compound `C#Cc1c(F)ccc2cc(O)cc(-c3nc(OC)c4c(N5CC6CCC(C5)N6C(C)C)nc(OCC5(CN6CC7CC7C6)CC5)nc4c3F)c12` (centres unmarked) [Example 121] registered a 50% effective concentration (EC50) of more than 1 µM.
With `C#Cc1c(F)ccc2cc(O)cc(-c3nc(OC)c4c(N5CC6CCC(C5)N6C(=O)CC(C)=O)nc(OCC5(CN6CC7CC7C6)CC5)nc4c3F)c12` (centres unmarked) [Example 122], the EC50 lay within 0.1 to 1 µM.
As for `C#Cc1c(F)ccc2cc(O)cc(-c3nc(OC)c4c(N5CC6CCC(C5)N6C(=O)C(C)C#N)nc(OCC5(CN6CC7CC7C6)CC5)nc4c3F)c12` (centres unmarked) [Example 123], the EC50 lay within 0.1 to 1 µM.
Consider `C#Cc1c(F)ccc2cc(O)cc(-c3nc(OC)c4c(N5CC6CCC(C5)N6C(=O)C(C)=O)nc(OCC5(CN6CC7CC7C6)CC5)nc4c3F)c12` (centres unmarked) [Example 124], for which the EC50 lay in the range of 0.1 to 1 µM.
The figure for `[2H]C([2H])([2H])Oc1nc(-c2cc(O)cc3ccc(F)c(C#C)c23)c(F)c2nc(OCC3(CN4CC5CC5C4)CC3)nc(N3CC4CCC(C3)N4C(=O)C(C#N)CC(F)(F)F)c12` (centres unmarked) [Example 125] is 0.1 to 1 µM; for `C#Cc1c(F)ccc2cc(O)cc(-c3nc(OC)c4c(N5CC6CCC(C5)N6C(=O)C(C#N)CC)nc(OCC5(CN6CC7CC7C6)CC5)nc4c3F)c12` (centres unmarked) [Example 126] it is 0.1 to 1 µM.
Turning to `O=CO.[2H]C([2H])([2H])Oc1nc(-c2cc(O)cc3ccc(F)c(C#C)c23)c(F)c2nc(OCC3(CN4CC5CC5C4)CC3)nc(N3CC4CCC(C3)N4C(=O)C(C#N)CC#N)c12` (centres unmarked) [Example 127], the EC50 was in the range of 0.1 to 1 µM.
Compound `C#Cc1c(F)ccc2cc(O)cc(-c3nc(OC)c4c(N5CC6CCC(C5)N6C(=O)CC[N+](=O)[O-])nc(OCC5(CN6CC7CC7C6)CC5)nc4c3F)c12` (centres unmarked) [Example 128] displayed an EC50 of 0.1 to 1 µM.
In the case of `C#Cc1c(F)ccc2cc(O)cc(-c3nc(OC)c4c(N5CC6CCC(C5)N6C(=O)N5CC(C#N)C5)nc(OCC5(CN6CC7CC7C6)CC5)nc4c3F)c12` (centres unmarked) [Example 130], the EC50 is less than 0.1 µM.
The figure for `C#Cc1c(F)ccc2cc(O)cc(-c3nc(OC)c4c(N5CC6CCC(C5)N6C(=O)C(CC#N)CC#N)nc(OCC5(CN6CC7CC7C6)CC5)nc4c3F)c12` (centres unmarked) [Example 131] is 0.1 to 1 µM; for `C#Cc1c(F)ccc2cc(O)cc(-c3nc(OC)c4c(N5CC6CCC(C5)N6C(=O)CCC=O)nc(OCC5(CN6CC7CC7C6)CC5)nc4c3F)c12` (centres unmarked) [Example 132] it is 0.1 to 1 µM.
For the compound `C#Cc1c(F)ccc2cc(O)cc(-c3nc(OC)c4c(N5CC6CCC(C5)N6C(=O)NCC(F)(F)F)nc(OCC5(CN6CCC(C#N)CC6)CC5)nc4c3F)c12` [Example 133], the EC50 was less than 0.1 µM.
In turn, `C#Cc1c(F)ccc2cc(O)cc(-c3nc(OC)c4c(N5CC6CCC(C5)N6C(=O)NC(C)C#N)nc(OCC5(CN6CCC(C#N)CC6)CC5)nc4c3F)c12` (centres unmarked) [Example 134] showed an EC50 of less than 0.1 µM.
`C#Cc1c(F)ccc2cc(O)cc(-c3nc(OC)c4c(N5CC6CCC(C5)N6C(=O)NC(C)C#N)nc(OCC5(CN6CCC(C(F)(F)F)CC6)CC5)nc4c3F)c12` (centres unmarked) [Example 135]: the EC50 is less than 0.1 µM.
The figure for `C#Cc1c(F)ccc2cc(O)cc(-c3nc(OC)c4c(N5CC6CCC(C5)N6C(=O)NCC(F)(F)F)nc(OCC5(CN6CCC(C(F)(F)F)CC6)CC5)nc4c3F)c12` [Example 136] is less than 0.1 µM; for `C#Cc1c(F)ccc2cc(O)cc(-c3nc(OC)c4c(N5CC6CCC(C5)N6C)nc(OCC5(CN6CC7CC7C6)CC5)nc4c3F)c12` (centres unmarked) [Example 137] it is more than 1 µM.
The figure for `C#Cc1c(F)ccc2cc(O)cc(-c3nc(OC)c4c(N5CC6CCC(C5)N6C(=O)COC(F)(F)F)nc(OCC5(CN6CC7CC7C6)CC5)nc4c3F)c12` (centres unmarked) [Example 138] is 0.1 to 1 µM; for `C#Cc1c(F)ccc2cc(O)cc(-c3nc(OC)c4c(N5CC6CCC(C5)N6C(=O)C(C)(C#N)CC#N)nc(OCC5(CN6CC7CC7C6)CC5)nc4c3F)c12` (centres unmarked) [Example 139] it is 0.1 to 1 µM.
`C#Cc1c(F)ccc2cc(O)cc(-c3nc(OC)c4c(N5CC6CCC(C5)N6C(=O)C(C)CC#N)nc(OCC5(CN6CC7CC7C6)CC5)nc4c3F)c12` (centres unmarked) [Example 141] displayed an EC50 of 0.1 to 1 µM.
As to `C#Cc1c(F)ccc2cc(O)cc(-c3nc(OC)c4c(N5CC6CCC(C5)N6C)nc(OCC5(CN6CCC(C(F)(F)F)CC6)CC5)nc4c3F)c12` [Example 142], the EC50 was more than 1 µM.
In the case of `C#Cc1c(F)ccc2cc(O)cc(-c3nc(OC)c4c(N5CC6CCC(C5)N6C(=O)N5CC6CC6C5)nc(OCC5(CN6CC7CC7C6)CC5)nc4c3F)c12` (centres unmarked) [Example 143], the EC50 was in the range of 0.1 to 1 µM.
`C#Cc1c(F)ccc2cc(O)cc(-c3nc(OC)c4c(N5CC6CCC(C5)N6C(=O)NCC)nc(OCC5(CN6CC7CC7C6)CC5)nc4c3F)c12` (centres unmarked) [Example 144]: the EC50 lay in the range of 0.1 to 1 µM.
`C#Cc1c(F)ccc2cc(O)cc(-c3nc(OC)c4c(N5CC6CCC(C5)N6C(=O)NC5CC(C#N)C5)nc(OCC5(CN6CC7CC7C6)CC5)nc4c3F)c12` (centres unmarked) [Example 145] yielded an EC50 of 0.1 to 1 µM.
As for `C#CCC(C#N)C(=O)N1C2CCC1CN(c1nc(OCC3(CN4CC5CC5C4)CC3)nc3c(F)c(-c4cc(O)cc5ccc(F)c(C#C)c45)nc(OC)c13)C2` (centres unmarked) [Example 146], the EC50 was in the range of 0.1 to 1 µM.
Compound `C#Cc1c(F)ccc2cc(O)cc(-c3nc(OC)c4c(N5CC6CCC(C5)N6C(=O)CC(C)(C)C#N)nc(OCC5(CN6CC7CC7C6)CC5)nc4c3F)c12` (centres unmarked) [Example 148] registered a concentration for a half-maximal effect (EC50) of less than 0.1 µM.
`C#Cc1c(F)ccc2cc(O)cc(-c3nc(OC)c4c(N5CC6CCC(C5)N6C(=O)C5CNC(=O)C5)nc(OCC5(CN6CC7CC7C6)CC5)nc4c3F)c12` (centres unmarked) [Example 149]: the EC50 is more than 1 µM.
Compound `C#Cc1c(F)ccc2cc(O)cc(-c3nc(OC)c4c(N5CC6CCC(C5)N6C(=O)C5CC(F)(C(C)C)C5)nc(OCC5(CN6CC7CC7C6)CC5)nc4c3F)c12` (centres unmarked) [Example 150] returned an EC50 of 0.1 to 1 µM.
As to `C#Cc1c(F)ccc2cc(O)cc(-c3nc(OC)c4c(N5CC6CCC(C5)N6C(=O)C5CN(C)C5)nc(OCC5(CN6CC7CC7C6)CC5)nc4c3F)c12` (centres unmarked) [Example 151], the EC50 is more than 1 µM.
On to `C#Cc1c(F)ccc2cc(O)cc(-c3nc(OC)c4c(N5CC6CCC(C5)N6C(=O)c5cocn5)nc(OCC5(CN6CC7CC7C6)CC5)nc4c3F)c12` (centres unmarked) [Example 153], for which the EC50 fell in the range of 0.1 to 1 µM.
Compound `C#Cc1c(F)ccc2cc(O)cc(-c3nc(OC)c4c(N5CC6CCC(C5)N6C(=O)C5CC(F)(F)CO5)nc(OCC5(CN6CC7CC7C6)CC5)nc4c3F)c12` (centres unmarked) [Example 154] registered an EC50 of 0.1 to 1 µM.
`C#Cc1c(F)ccc2cc(O)cc(-c3nc(OC)c4c(N5CC6CCC(C5)N6C(=O)C5C6CCOC65)nc(OCC5(CN6CC7CC7C6)CC5)nc4c3F)c12` (centres unmarked) [Example 155] gave an EC50 of less than 0.1 µM.
The figure for `C#Cc1c(F)ccc2cc(O)cc(-c3nc(OC)c4c(N5CC6CCC(C5)N6C(=O)CCNC)nc(OCC5(CN6CC7CC7C6)CC5)nc4c3F)c12` (centres unmarked) [Example 157] is more than 1 µM; for `C#Cc1c(F)ccc2cc(O)cc(-c3nc(OC)c4c(N5CC6CCC(C5)N6C(=O)NC5CN(C)C5)nc(OCC5(CN6CC7CC7C6)CC5)nc4c3F)c12` (centres unmarked) [Example 158] it is more than 1 µM.
`C#Cc1c(F)ccc2cc(O)cc(-c3nc(OC)c4c(N5CC6CCC(C5)N6C(=O)N(C)CC(F)(F)F)nc(OCC5(CN6CC7CC7C6)CC5)nc4c3F)c12` (centres unmarked) [Example 159] returned an EC50 of 0.1 to 1 µM.
The figure for `C#Cc1c(F)ccc2cc(O)cc(-c3nc(OC)c4c(N5CC6CCC(C5)N6C(=O)OCC#N)nc(OCC5(CN6CC7CC7C6)CC5)nc4c3F)c12` (centres unmarked) [Example 161] is less than 0.1 µM.

The values are drawn from patent US20260200946A1, “KRAS(G12V) INHIBITORS” (Ranok Therapeutics (Hangzhou) Co. Ltd., priority 2022, published 2026).
